Measured values reported in ChEMBL document CHEMBL3886877, “Spiro ring compound as hepatitis C virus (HCV) inhibitor and uses thereof” (2016).

Assay: Luciferase Assay: The Huh-7 cells transfected with HCV replicons system were seeded into 96-well plates (8,000 cells in 125 μL/well) respectively; each test compound was diluted to desired concentration using 5-fold serial dilutions protocol, 10 doses in duplicate, and added to wells with POD™ 810 Plate Assembler. […] In this paper, experiments were repeated twice and set the holes without compounds as negative control.

Compound	EC50	EC50 (Huh-7)
COC(=O)N[C@H](C(=O)N1CCC[C@H]1c1ncc(-c2ccc(-c3ccc(-c4ccc5nc([C@@H]6CCCN6C(=O)[C@@H](NC(=O)OC)C(C)C)[nH]c(=O)c5c4)c4c3CC3(CCCC3)C4)cc2)[nH]1)C(C)C	0.087 nM	
COC(=O)N[C@H](C(=O)N1C[C@@H](C)C[C@H]1[n+]1c[nH]c(-c2ccc(-c3ccc(-c4ccc5nc([C@@H]6C[C@H](C)CN6C(=O)[C@@H](NC(=O)OC)C(C)C)[nH]c(=O)c5c4)c4c3CC3(CCCC3)C4)cc2)c1)C(C)C		0.006 nM
